Data from patent US20110245242A1, “Heterocyclically Substituted Anilinopyrimides” (Bayer CropScience AG, priority 2008, published 2011).
Like-named read-outs stand apart in the source and are kept apart here. Marks after values point to notes of the source that are not given here.

Legend:
[1] = log P by HPLC on reversed-phase columns (C 18), method [a], acidic range pH 2.3; type: physicochemical
Description: The log P values were measured in accordance with EEC Directive 79/831 Annex V.A8 by HPLC (High Performance Liquid Chromatography) on reversed-phase columns (C 18) using the methods below: [a] The determination was carried out in the acidic range at pH 2.3 using the mobile phases 0.1% aqueous phosphoric acid and acetronitrile linear gradient from 10% acetonitrile to 95% acetronitrile.

physchem [2] = type: physicochemical; conditions: pH 7.8
Description: The log P values were measured in accordance with EEC Directive 79/831 Annex V.A8 by HPLC (High Performance Liquid Chromatography) on reversed-phase columns (C 18) using the methods below: [c] The LC-MS determination in the neutral range was carried out at pH 7.8 using the mobile phases 0.001 molar aqueous ammonium bicarbonate solution and acetonitrile linear gradient from 10% acetonitrile to 95% acetonitrile.

Fusarium proliferatum = assay: Production of Fumonisin FB1 by Fusarium proliferatum (microtitre plates; FB1 by HPLC-MS/MS, growth by OD620); type: cell-based; conditions: for IC50: Fusarium proliferatum, 144 h
Sphaerotheca fuliginea = assay: Sphaerotheca test (cucumber)/protective; type: in vivo; conditions: Podosphaera fuliginea, 168 h, active compound concentration of 500 ppm, protective, evaluation 7 days after the inoculation, read-out: efficacy
physchem [3] = type: physicochemical; conditions: pH 7
Fusarium graminearum = assay: microbe, parasite or virus in culture; type: cell-based; conditions: 168 h, read-out: activity in the inhibition of DON/AcDON
[4] = log P by LC-MS, method [b], acid range pH 2.7; type: physicochemical; conditions: pH 2.7
Description: The log P values were measured in accordance with EEC Directive 79/831 Annex V.A8 by HPLC (High Performance Liquid Chromatography) on reversed-phase columns (C 18) using the methods below:
[b] The LC-MS determination in the acid range was carried out at pH 2.7 using the mobile phases 0.1% aqueous formic acid and acetonitrile (contains 0.1% formic acid)
linear gradient from 10% acetonitrile to 95% acetonitrile.

[5] = type: physicochemical
Description: The log P values were measured in accordance with EEC Directive 79/831 Annex V.A8 by HPLC (High Performance Liquid Chromatography) on reversed-phase columns (C 18) using the methods below: […]

Phakopsora pachyrhizi = assay: Phakopsora test (soya beans)/protective; type: in vivo; conditions: active compound concentration of 250 ppm, protective, evaluation 1 day after the inoculation
[6] = FB1 concentration in liquid medium after 6 days at 20° C., HPLC-MS/MS
[7] = OD620 at the beginning and after 6 days

Row | SMILES | log p (physchem [2]) | pest or weed control at 500 ppm (Sphaerotheca fuliginea) | chromatographic logP ([1]; pH 2.3, log P (pH 2.3)) | chromatographic logP [4] | log p [4] | also measured
1 | CCC(C)Nc1nc(Nc2cccc(N3CCCC3=O)c2)ncc1Cl (centres unmarked) [Example 8] | 2.92[c] |  |  |  |  | log p ([1]; pH 2.3): 1.84[a];; pI50 Fum (Fusarium proliferatum; [6]): 4.6; pI50 growth (Fusarium proliferatum; [7]): 4
2 | S=C1CCCN1c1cccc(Nc2ncc(Cl)c(NC3CC3)n2)c1 [Example 33, 1-(3-{[5-Chloro-4-(cyclopropylamino)pyrimidin-2-yl]amino}phenyl)pyrrolidine-2-thione] |  | ≥ 70% |  |  |  | chromatographic logP ([1]; pH 2.3, log p): 1.69; chromatographic logP (physchem [2]): 2.54; chromatographic logP (physchem [3]): 2.54
3 | O=C1OCCN1c1cccc(Nc2ncc(Cl)c(NC3CCC3)n2)c1 [Example 59, 3-(3-{[5-Chloro-4-(cyclobutylamino)pyrimidin-2-yl]amino}phenyl)-1,3-oxazolidin-2-one] |  | ≥ 70% | 1.64 | 1.64 |  | chromatographic logP ([1]; pH 2.3, log p): 1.64; inhibition at 50 µM (Fusarium graminearum): > 80%; IC50 (Fusarium proliferatum; FB1 concentration in liquid medium after 6 days at 20° C., HPLC-MS/MS, read-out: pI50 Fum (converted)): 631 nM; IC50 (Fusarium proliferatum; OD620 at the beginning and after 6 days, read-out: pI50 growth (converted)): 2510 nM
4 | CCOC1CCC(=O)N1c1cccc(Nc2ncc(Cl)c(NC3CC3)n2)c1 (centres unmarked) [Example 106, 1-(3-{[5-Chloro-4-(cyclopropylamino)pyrimidin-2-yl]amino}phenyl)-5-ethoxypyrrolidin-2-one] |  | ≥ 70% | 1.65 |  |  | chromatographic logP ([1]; pH 2.3, log p): 1.65
5 | O=C1CCC(=O)N1c1cc(Nc2ncc(C(F)(F)F)c(NC3CC3)n2)ccc1Cl [Example 119, 1-(2-Chloro-5-{[4-(cyclopropylamino)-5-(trifluoromethyl)pyrimidin-2-yl]amino}phenyl)pyrrolidine-2,5-dione] |  | ≥ 70% | 2.49 | 2.49 |  | 
6 | CCOC(=O)[C@@H]1CCC(=O)N1c1cccc(Nc2ncc(Cl)c(NC3CC3)n2)c1 [Example 190, Ethyl 1-(3-{[5-chloro-4-(cyclopropylamino)pyrimidin-2-yl]amino}phenyl)-5-oxo-L-prolinate] |  | ≥ 70% | 1.69 | 1.69 |  | chromatographic logP (physchem [2]): 2.53
7 | O=C1CCC(=O)N1c1cccc(Nc2ncc(Cl)c(NC3CC3)n2)c1 [Example 195] | 1.98[c]; |  |  |  |  | log p [5]: 0.99[d]; pI50 Fum (Fusarium proliferatum; [6]): 6.2
8 | CN(c1nc(Nc2ccc(F)c(N3CCCC3=O)c2)ncc1Cl)C1CC1 [Example 198] | 2.92[c]; |  |  |  | 2.53[b] | pI50 Fum (Fusarium proliferatum; [6]): 5.5; pI50 growth (Fusarium proliferatum; [7]): 4.8
9 | COCC(C)Nc1nc(Nc2cccc(N3C(=O)CCC3=O)c2)ncc1Cl (centres unmarked) [Example 202] | 2.13[c]; |  |  |  | 1.26[b]; | log p [5]: 1.02[d]
10 | O=C1CCC(=O)N1c1cccc(Nc2ncc(Cl)c(NC3CCC3)n2)c1 [Example 203] | 2.32[c]; |  |  |  | 1.48[b]; | log p [5]: 1.24[d]
11 | CCC1CC(C)C(=O)N1c1cccc(Nc2ncc(Cl)c(NC3CC3)n2)c1 (centres unmarked) [Example 206, 1-(3-{[5-Chloro-4-(cyclopropylamino)pyrimidin-2-yl]amino}phenyl)-5-ethyl-3-methylpyrrolidin-2-one] |  | ≥ 70% | 2.19 | 2.19 |  | chromatographic logP (physchem [2]): 3.15
12 | CCC1CC(C)C(=O)N1c1cccc(Nc2ncc(Br)c(NC3CCC3)n2)c1 (centres unmarked) [Example 211] |  |  |  |  | 2.63[b]; | log p [5]: 2.19[d]
13 | FC(F)(F)c1cnc(Nc2cccc(N3CCCC3=S)c2)nc1NC1CC1 [Example 214] | 2.86[c]; |  |  |  | 2.59[b] | efficacy (Phakopsora pachyrhizi): ≥ 80%; pI50 Fum (Fusarium proliferatum; [6]): 5.1; pI50 growth (Fusarium proliferatum; [7]): 5
14 | O=CN(c1cccc(N2CCCC2=O)c1)c1ncc(Cl)c(NC2CC2)n1 [Example 217, N-[5-Chloro-4-(cyclopropylamino)pyrimidin-2-yl]-N-[3-(2-oxopyrrolidin-1-yl)phenyl]-formamide] |  | ≥ 70% | 1.22 | 1.49 |  | 
15 | COCC(=O)N(c1cccc(N2CCCC2=O)c1)c1ncc(Cl)c(NC2CC2)n1 [Example 231, N-[5-Chloro-4-(cyclopropylamino)pyrimidin-2-yl]-2-methoxy-N-[3-(2-oxopyrrolidin-1-yl)phenyl]acetamide] |  | ≥ 70% | 1.87 | 1.87 |  | chromatographic logP (physchem [2]): 1.82
